Data as given in patent US9630977B2, “Cephalosporin derivatives and pharmaceutical compositions thereof” (Legochem Biosciences, Inc., priority 2011, dated 2017).
≈ marks a conversion by molar mass, not a printed value.

Tests used:
Test in all cases: In vitro antibacterial activity test (broth microdilution)
Format in all cases: cell-based
P. aeruginosa 6065Y = conditions: Pseudomonas aeruginosa, 6065Y
In short: (§1)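 MIC90 (ug/mL) determined by CLSI broth microdilution against clinical isolates, defined as lowest concentration inhibiting visible growth of 90% of organisms after incubation versus untreated control. Compounds tested from 0.0626 to 128 ug/mL final, with 2.5% (V/V) DMSO.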

K. pneumoniae β10 = conditions: Klebsiella pneumoniae
In short: as §1

M. catarrhalis 2524 = conditions: Moraxella catarrhalis, 2524
In short: as §1

A. baumannii 49 = conditions: Acinetobacter baumannii, 49, A. baumannii 49
In short: as §1

E. coli β4 = conditions: Escherichia coli
In short: as §1

P. aeruginosa 43 = conditions: Pseudomonas aeruginosa, 43
In short: as §1

P. aeruginosa 1912E = conditions: Pseudomonas aeruginosa, 1912E
In short: as §1

A. baumannii 52 = conditions: Acinetobacter baumannii, 52
In short: as §1

K. pneumoniae β14 = conditions: Klebsiella pneumoniae
In short: as §1

K. pneumoniae β13 = conditions: Klebsiella pneumoniae
In short: as §1

A. baumannii 46 = conditions: Acinetobacter baumannii, 46, A. baumannii 46
In short: as §1

K. pneumoniae β11 = conditions: Klebsiella pneumoniae
In short: as §1

P. aeruginosa 40 = conditions: Pseudomonas aeruginosa, 40
In short: as §1

P. aeruginosa 37 = conditions: Pseudomonas aeruginosa, 37, P. aeruginosa 37
In short: as §1

E. cloacae β19 = conditions: Enterobacter cloacae
In short: as §1

[1] = system: A. calcoaceticus ATCC15473; conditions: Acinetobacter calcoaceticus, ATCC15473, A. calcoaceticus ATCC15473
In short: as §1

E. coli AG100 = conditions: Escherichia coli, AG100
In short: as §1

K. pneumoniae β9 = conditions: Klebsiella pneumoniae
In short: as §1

K. pneumoniae 2011E = conditions: Klebsiella pneumoniae, 2011E
In short: as §1

SMILES | MIC90 (P. aeruginosa 6065Y) [µg/mL] | MIC90 (K. pneumoniae β10) [µg/mL] | MIC90 (M. catarrhalis 2524) [µg/mL] | MIC90 (A. baumannii 49) [µg/mL] | MIC90 (E. coli β4) [µg/mL] | MIC90 (P. aeruginosa 43) [µg/mL] | MIC90 (P. aeruginosa 1912E) [µg/mL] | MIC90 (A. baumannii 52) [µg/mL] | MIC90 (K. pneumoniae β14) [µg/mL] | MIC90 (K. pneumoniae β13) [µg/mL] | MIC90 (A. baumannii 46) [µg/mL] | MIC90 (K. pneumoniae β11) [µg/mL] | MIC90 (P. aeruginosa 40) [µg/mL] | MIC90 (P. aeruginosa 37) [µg/mL] | MIC90 (E. cloacae β19) [µg/mL] | MIC90 [1] [µg/mL] | MIC90 (E. coli AG100) [µg/mL] | MIC90 (K. pneumoniae β9) [µg/mL] | MIC90 (K. pneumoniae 2011E) [µg/mL]
CC(C)(O/N=C(\C(=O)N[C@@H]1C(=O)N2C(C(=O)[O-])=C(/C=C/C[n+]3cnc(N)c(NC(=O)CCN)c3)CSC12)c1csc(N)n1)C(=O)O (stereo partly drawn) [Compound 60] | 16 (≈ 23.7 µM) | 0.5 (≈ 0.741 µM) | < 0.0625 | > 128 | 0.25 (≈ 0.371 µM) | 64 (≈ 94.9 µM) | 2 (≈ 2.96 µM) | 128 (≈ 190 µM) | 0.5 (≈ 0.741 µM) | 0.5 (≈ 0.741 µM) | 8 (≈ 11.9 µM) | 64 (≈ 94.9 µM) | 8 (≈ 11.9 µM) | 32 (≈ 47.4 µM) | 0.5 (≈ 0.741 µM) | 1 (≈ 1.48 µM) | 0.125 (≈ 0.185 µM) | 1 (≈ 1.48 µM) | 0.25 (≈ 0.371 µM)
CC(C)(O/N=C(\C(=O)N[C@@H]1C(=O)N2C(C(=O)[O-])=C(/C=C/C[n+]3cnc(N)c(NC(=O)CCN)c3)CSC12)c1nsc(N)n1)C(=O)O (stereo partly drawn) [Compound 61] | 32 (≈ 47.4 µM) | 1 (≈ 1.48 µM) | < 0.0625 | 128 (≈ 189 µM) | 0.125 (≈ 0.185 µM) | > 128 | 2 (≈ 2.96 µM) | 128 (≈ 189 µM) | 4 (≈ 5.92 µM) | 2 (≈ 2.96 µM) | 128 (≈ 189 µM) | > 128 | 2 (≈ 2.96 µM) | 32 (≈ 47.4 µM) | 16 (≈ 23.7 µM) | 1 (≈ 1.48 µM) | 0.125 (≈ 0.185 µM) | 16 (≈ 23.7 µM) | 0.25 (≈ 0.37 µM)
CC(C)(O/N=C(\C(=O)N[C@@H]1C(=O)N2C(C(=O)[O-])=C(/C=C/C[n+]3cnc(N)c(NC(=O)CCN)c3)CSC12)c1nc(N)sc1Cl)C(=O)O (stereo partly drawn) [Compound 62] | 16 (≈ 22.6 µM) | 0.5 (≈ 0.705 µM) | < 0.0625 | 32 (≈ 45.1 µM) | 0.5 (≈ 0.705 µM) | 64 (≈ 90.2 µM) | 4 (≈ 5.64 µM) | 32 (≈ 45.1 µM) | 1 (≈ 1.41 µM) | 1 (≈ 1.41 µM) | 16 (≈ 22.6 µM) | 1 (≈ 1.41 µM) | 8 (≈ 11.3 µM) | 8 (≈ 11.3 µM) | 4 (≈ 5.64 µM) | 1 (≈ 1.41 µM) | 0.5 (≈ 0.705 µM) | 1 (≈ 1.41 µM) | 1 (≈ 1.41 µM)
CC(C)(O/N=C(\C(=O)N[C@@H]1C(=O)N2C(C(=O)[O-])=C(/C=C/C[n+]3cnc(N)c(NC(=O)CCCN)c3)CSC12)c1csc(N)n1)C(=O)O (stereo partly drawn) [Compound 63] | 16 (≈ 23.2 µM) | 0.5 (≈ 0.726 µM) | < 0.0625 | 128 (≈ 186 µM) | 0.25 (≈ 0.363 µM) | 128 (≈ 186 µM) | 2 (≈ 2.9 µM) | 128 (≈ 186 µM) | 1 (≈ 1.45 µM) | 1 (≈ 1.45 µM) | 8 (≈ 11.6 µM) | 32 (≈ 46.5 µM) | 4 (≈ 5.81 µM) | 32 (≈ 46.5 µM) | 16 (≈ 23.2 µM) | 1 (≈ 1.45 µM) | 0.125 (≈ 0.181 µM) | 1 (≈ 1.45 µM) | 0.25 (≈ 0.363 µM)
CC(C)(O/N=C(\C(=O)N[C@@H]1C(=O)N2C(C(=O)[O-])=C(/C=C/C[n+]3cnc(N)c(NC(=O)CCCN)c3)CSC12)c1nc(N)sc1Cl)C(=O)O (stereo partly drawn) [Compound 64] | 32 (≈ 44.2 µM) | 1 (≈ 1.38 µM) | < 0.0625 | 32 (≈ 44.2 µM) | 1 (≈ 1.38 µM) | 128 (≈ 177 µM) | 4 (≈ 5.53 µM) | 32 (≈ 44.2 µM) | 2 (≈ 2.77 µM) | 2 (≈ 2.77 µM) | 16 (≈ 22.1 µM) | 8 (≈ 11.1 µM) | 8 (≈ 11.1 µM) | 16 (≈ 22.1 µM) | 8 (≈ 11.1 µM) | 1 (≈ 1.38 µM) | 0.5 (≈ 0.691 µM) | 2 (≈ 2.77 µM) | 2 (≈ 2.77 µM)
CC(C)(O/N=C(\C(=O)N[C@@H]1C(=O)N2C(C(=O)[O-])=C(/C=C/C[n+]3cnc(N)c(NC(=O)CCCN)c3)CSC12)c1nsc(N)n1)C(=O)O (stereo partly drawn) [Compound 65] | 32 (≈ 46.4 µM) | 1 (≈ 1.45 µM) | < 0.0625 | 64 (≈ 92.8 µM) | 0.125 (≈ 0.181 µM) | > 128 | 2 (≈ 2.9 µM) | 64 (≈ 92.8 µM) | 2 (≈ 2.9 µM) | 2 (≈ 2.9 µM) | 64 (≈ 92.8 µM) | > 128 | 4 (≈ 5.8 µM) | 32 (≈ 46.4 µM) | 32 (≈ 46.4 µM) | 0.5 (≈ 0.725 µM) | < 0.0625 | 16 (≈ 23.2 µM) | 0.25 (≈ 0.362 µM)
